{
  "source": "patent US11697669B2",
  "about": "“Hemi-citrate salts of GABA-A positive allosteric modulator and crystalline form thereof” (priority 2021, dated 2023)",
  "format_in_all_cases": "physicochemical",
  "key": {"[1]": {"experiment": "Dynamic vapor sorption (DVS) at room temperature and 40° C.", "experimental": "DVS was measured via a SMS (Surface Measurement System) DVS Intrinsic. Parameters for DVS data collection were as follows:\nA second endotherm (having an onset at 121.5° C.) associated with melting of the dehydrated phase (ΔH: 15.20 J/g) was followed by a rapid decomposition as temperature continued to increase (FIG. 3). Because of the low onset of dehydration, the DVS was measured at both room temperature and at 40° C. to predict the stability of the crystalline phase at 40° C. […] A 1.5% weight loss was observed between 95% and 20% RH, and a 2.9% weight loss was observed between 20% and 0% RH, for a total loss of […] across the entire cycle. […] After measuring the hygroscopicity by DVS, an XRPD pattern was collected for comparison to the original material and found to correspond well to the pattern of the room temperature sample post-DVS temperature cycle (FIG. 6)."}, "[2]": {"experiment": "Heckel analysis on compaction simulator (yield pressure, strain rate sensitivity, crushing strength)", "details": "for yield pressure, slow speed: punch speed 0.1 mm/s; for yield pressure, fast press speed: punch speed 300 mm/s", "experimental": "The aim of the Heckel test is to compress the material under controlled conditions to derive the yield pressure of the bulk material. A known weight of material is compressed within a 10 mm diameter die with flat faced punches moving at a set speed. The force on the punch is accurately measured at frequent intervals whilst the displacement of the punches is used to calculate the volume of the powder. The yield pressure is calculated at slow and fast punch speeds to assess the time-dependent component to deformation of the material.\nA known weight of pure drug is compacted to theoretical zero porosity using 10 mm diameter flat faced punches. The Compaction Simulator was used under the following conditions:\nDuring compression the location of the punch tips are accurately determined, and the force measured by load cells producing a record of the primary compression parameters. Temperature and humidity were monitored at intervals during the test.\nThe data were analyzed by the Compaction Analysis software program to generate values for yield pressure (Py) using the Heckel equation:\n[formula] where D=the relative density of the compact; • P=Pressure applied; and • K=Gradient of the line in the linear region; [Reference: R. W. Heckel. Trans. Metall. Soc. AIME 221 (1961)1001-1008].\nFor some materials, the deformation characteristics change with rate of applied force. This can be estimated by calculating the Strain Rate Sensitivity. The yield pressure at high speed compression is compared to that at slow speed using the following equation:\n[formula] [Reference: R. J. Roberts and R. C. Roe, Chem. Eng. Sci. 42(1987) p 903]. Results"}, "[3]": {"experiment": "Tablet stability: C17 epimer in sealed bottles stored at 40° C./75% RH", "details": "tablet dosage form, sealed bottle, 1 or 2 months, versus mono-citrate salt", "experimental": "FIG. 12 is a graph comparing the amount of the C17 epimer, a degradation product of Compound 1, over time for a tablet formulation containing Compound 1 hemi-citrate salt (Form I; left column in both “1 month” and “2 months”) or Compound 1 mono-citrate salt (Form A; right column in both “1 month” and “2 months”) in sealed bottles stored at 40° C./75% RH)."}, "[4]": {"experiment": "Tablet dissolution: percent release of Compound 1 from acidified tablet formulation", "experimental": "FIG. 13 is a graph showing percent release of Compound 1 over time for an acidified tablet formulation containing Compound 1 hemi-citrate salt Form I. Tablets were used initially or maintained at 40° C./75% RH for 2 weeks, 1 month, or 2 months.\nFIG. 14 is a graph showing percent release of Compound 1 over time for an acidified tablet formulation containing Compound 1 mono-citrate salt (Form A). Tablets were used initially or stored at 40° C./75% RH for 2 weeks, 1 month, or 2 months."}, "[5]": {"experiment": "Gelation experiments in aqueous media", "details": "for gelation during tablet dissolution experiments: certain conditions", "experimental": "To confirm these findings, controlled experiments were conducted where the free base, mono-citrate, and hemi-citrate salts of Compound 1 were dissolved in aqueous media at concentrations between 0.5 mg/mL and 10 mg/mL. The dissolution experiments were performed in either 0.1 N HCl, water, or pH 7.4 buffer as aqueous media."}, "[6]": {"details": "fast speed 300 mm/s, single runs, 21.7° C./38.9% RH"}},
  "note": "Where a name gives a salt, the structure may show the parent alone. Read-outs that look alike come from different tables or passages of the source.",
  "data": [
    {"smiles": "COC[C@@]1(O)CC[C@@]2(C)[C@@H](CC[C@@H]3[C@@H]2CC[C@]2(C)[C@@H](C(=O)Cn4ccnc4)CC[C@@H]32)C1", "note": "[Compound 1 hemi-citrate salt Form I, 3α-Hydroxy-3β-methoxymethyl-21-(1′-imidazolyl)-5α-pregnan-20-one]", "values": [
      {"measurement": "hygroscopicity", "setting": "[1]", "result": "slightly hygroscopic"},
      {"measurement": "reversibility of water loss", "setting": "[1]; 40° C.", "result": "fully reversible"},
      {"measurement": "total loss", "setting": "[1]; 40° C.", "result": 5.4, "unit": "%"},
      {"measurement": "water absorption from 20% to 80% RH", "setting": "[1]; 40° C.", "result": 1.8, "unit": "%"},
      {"measurement": "water lost between 95% and 20% RH", "setting": "[1]; 40° C.", "result": 2.2, "unit": "%"},
      {"measurement": "water lost from 20% to 0% RH", "setting": "[1]; 40° C.", "result": 3.2, "unit": "%"},
      {"measurement": "reversibility of water loss", "setting": "[1]; room temperature", "result": "fully reversible"},
      {"measurement": "total loss across the entire cycle", "setting": "[1]; room temperature", "result": 4.3, "unit": "%"},
      {"measurement": "water uptake between 20% and 80% RH", "setting": "[1]; room temperature", "result": 1.2, "unit": "%"},
      {"measurement": "weight loss between 20% and 0% RH", "setting": "[1]; room temperature", "result": 2.9, "unit": "%"},
      {"measurement": "weight loss between 95% and 20% RH", "setting": "[1]; room temperature", "result": 1.5, "unit": "%"},
      {"measurement": "Strain rate sensitivity (SRS)", "setting": "[2]; fast versus slow speed yield pressure", "result": 21.4, "unit": "%"},
      {"measurement": "yield pressure, slow speed", "setting": "[2]", "result": 69, "unit": "MPa"}
    ]},
    {"smiles": "COC[C@@]1(O)CC[C@@]2(C)[C@@H](CC[C@@H]3[C@@H]2CC[C@]2(C)[C@@H](C(=O)Cn4ccnc4)CC[C@@H]32)C1", "note": "[Compound 1 hemi-citrate salt, 3α-Hydroxy-3β-methoxymethyl-21-(1′-imidazolyl)-5α-pregnan-20-one]", "values": [
      {"measurement": "degradation product (C17-epimer) generated", "setting": "[3]", "result": "less degradation product"},
      {"measurement": "release of Compound 1 over time", "setting": "[4]; acidified formulation, initial and open dish at 40° C./75% RH for 2 weeks, 1 month or 2 months", "result": "greater than the release of Compound 1 from the same acidified formulation of the Compound 1 mono-citrate salt"},
      {"measurement": "susceptibility to dissolution slow-down of the tablet", "setting": "[4]; tablet, versus mono-citrate salt", "result": "less susceptible than the Compound 1 mono-citrate salt to dissolution slow-down"},
      {"measurement": "gelation", "setting": "[5]; any of the aqueous media (0.1 N HCl, water, pH 7.4 buffer), concentrations up to 10 mg/mL", "result": "did not gel"},
      {"measurement": "gelation during tablet dissolution experiments", "setting": "[5]", "result": "not prone to gelation"},
      {"measurement": "classification of compaction properties", "setting": "[2]", "result": "soft ductile compaction properties"},
      {"measurement": "yield pressure, fast press speed", "setting": "[2]", "result": 84, "unit": "MPa"}
    ]},
    {"smiles": "COC[C@@]1(O)CC[C@@]2(C)[C@@H](CC[C@@H]3[C@@H]2CC[C@]2(C)[C@@H](C(=O)Cn4ccnc4)CC[C@@H]32)C1.O=C(O)CC(O)(CC(=O)O)C(=O)O", "note": "[Compound 1 mono-citrate salt Form A]", "values": [
      {"measurement": "Compact observations", "setting": "[2]; [6]", "result": "Laminated"},
      {"measurement": "Ejection Force", "setting": "[2]; [6]", "result": 0.740, "unit": "kN"},
      {"measurement": "yield pressure, slow speed", "setting": "[2]", "result": 84, "unit": "MPa"},
      {"measurement": "Compact observations", "setting": "[2]; slow speed 0.1 mm/s, single runs, 21.6° C./37.1% RH", "result": "Ok"}
    ]},
    {"smiles": "COC[C@@]1(O)CC[C@@]2(C)[C@@H](CC[C@@H]3[C@@H]2CC[C@]2(C)[C@@H](C(=O)Cn4ccnc4)CC[C@@H]32)C1.O=C(O)CC(O)(CC(=O)O)C(=O)O", "note": "[Compound 1 mono-citrate salt, 3α-Hydroxy-3β-methoxymethyl-21-(1′-imidazolyl)-5α-pregnan-20-one, reference compound]", "values": [
      {"measurement": "gelation", "setting": "[5]; 0.1 N HCl, 5 mg/mL", "result": "rapidly gelled"},
      {"measurement": "gelation during tablet dissolution experiments", "setting": "[5]", "result": "significant gelation"},
      {"measurement": "gelation", "setting": "[5]; water or pH 7.4 buffer", "result": "did not gel"},
      {"measurement": "classification of compaction properties", "setting": "[2]; from slow speed yield pressure", "result": "moderately brittle/ductile compaction properties"},
      {"measurement": "yield pressure, fast press speed", "setting": "[2]", "result": 109, "unit": "MPa"}
    ]},
    {"smiles": "COC[C@@]1(O)CC[C@@]2(C)[C@@H](CC[C@@H]3[C@@H]2CC[C@]2(C)[C@@H](C(=O)Cn4ccnc4)CC[C@@H]32)C1", "note": "[Compound 1, 3α-Hydroxy-3β-methoxymethyl-21-(1′-imidazolyl)-5α-pregnan-20-one]", "values": [
      {"measurement": "gelation", "setting": "[5]; 0.1 N HCl, concentrations as low as 1 mg/mL", "result": "rapidly gelled"},
      {"measurement": "gelation", "setting": "[5]; water or pH 7.4 buffer", "result": "did not gel"}
    ]}
  ]
}
